Data from patent US10259810B2, “N-sulfonylated pyrazolo[3,4-b]pyridin-6-carboxamides and method of use” (AbbVie S.à.r.l., priority 2015, dated 2019).

Tests used:
ΔF508-CFTR [1] = target: T1, ΔF508-CFTR (Homo sapiens, UniProt P13569, DEL508-508); assay: CFTR cell surface levels using HRP-tagged ΔF508-CFTR expressing CFBE cells, in the presence of a co-corrector; assay type: cell-based; conditions: HRP-tagged ΔF508-CFTR CFBE cells, in the presence of 3 μM co-corrector; for EC50: read-out: EC50
T1 construct: host or cells: CFBE41o-, doxycycline-inducible
Outline: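 Chemiluminescent read-out of surface HRP (15 min, dark) after PBS washes. Activity is normalized as 100×(sample−DMSO)/(3 μM co-corrector alone−DMSO).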

ΔF508-CFTR [2] = target: T1, ΔF508-CFTR; assay: CFTR cell surface levels using HRP-tagged ΔF508-CFTR expressing CFBE cells, intrinsic corrector capacity; assay type: cell-based; parameters: % Activation: concentration or dose not given beside the values; conditions: HRP-tagged ΔF508-CFTR expressing CFBE41o- cells, compound alone (intrinsic corrector capacity), 20 hours at 33° C.; for EC50: read-out: EC50
Outline: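 Read-out: chemiluminescent HRP activity of ECL4-HRP-tagged ΔF508-CFTR at the cell surface, 15 min substrate in dark. Normalized as 100×(sample−DMSO)/(positive control−DMSO).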

T1 sequence (P13569 with tags, fused parts or gaps DEL508-508): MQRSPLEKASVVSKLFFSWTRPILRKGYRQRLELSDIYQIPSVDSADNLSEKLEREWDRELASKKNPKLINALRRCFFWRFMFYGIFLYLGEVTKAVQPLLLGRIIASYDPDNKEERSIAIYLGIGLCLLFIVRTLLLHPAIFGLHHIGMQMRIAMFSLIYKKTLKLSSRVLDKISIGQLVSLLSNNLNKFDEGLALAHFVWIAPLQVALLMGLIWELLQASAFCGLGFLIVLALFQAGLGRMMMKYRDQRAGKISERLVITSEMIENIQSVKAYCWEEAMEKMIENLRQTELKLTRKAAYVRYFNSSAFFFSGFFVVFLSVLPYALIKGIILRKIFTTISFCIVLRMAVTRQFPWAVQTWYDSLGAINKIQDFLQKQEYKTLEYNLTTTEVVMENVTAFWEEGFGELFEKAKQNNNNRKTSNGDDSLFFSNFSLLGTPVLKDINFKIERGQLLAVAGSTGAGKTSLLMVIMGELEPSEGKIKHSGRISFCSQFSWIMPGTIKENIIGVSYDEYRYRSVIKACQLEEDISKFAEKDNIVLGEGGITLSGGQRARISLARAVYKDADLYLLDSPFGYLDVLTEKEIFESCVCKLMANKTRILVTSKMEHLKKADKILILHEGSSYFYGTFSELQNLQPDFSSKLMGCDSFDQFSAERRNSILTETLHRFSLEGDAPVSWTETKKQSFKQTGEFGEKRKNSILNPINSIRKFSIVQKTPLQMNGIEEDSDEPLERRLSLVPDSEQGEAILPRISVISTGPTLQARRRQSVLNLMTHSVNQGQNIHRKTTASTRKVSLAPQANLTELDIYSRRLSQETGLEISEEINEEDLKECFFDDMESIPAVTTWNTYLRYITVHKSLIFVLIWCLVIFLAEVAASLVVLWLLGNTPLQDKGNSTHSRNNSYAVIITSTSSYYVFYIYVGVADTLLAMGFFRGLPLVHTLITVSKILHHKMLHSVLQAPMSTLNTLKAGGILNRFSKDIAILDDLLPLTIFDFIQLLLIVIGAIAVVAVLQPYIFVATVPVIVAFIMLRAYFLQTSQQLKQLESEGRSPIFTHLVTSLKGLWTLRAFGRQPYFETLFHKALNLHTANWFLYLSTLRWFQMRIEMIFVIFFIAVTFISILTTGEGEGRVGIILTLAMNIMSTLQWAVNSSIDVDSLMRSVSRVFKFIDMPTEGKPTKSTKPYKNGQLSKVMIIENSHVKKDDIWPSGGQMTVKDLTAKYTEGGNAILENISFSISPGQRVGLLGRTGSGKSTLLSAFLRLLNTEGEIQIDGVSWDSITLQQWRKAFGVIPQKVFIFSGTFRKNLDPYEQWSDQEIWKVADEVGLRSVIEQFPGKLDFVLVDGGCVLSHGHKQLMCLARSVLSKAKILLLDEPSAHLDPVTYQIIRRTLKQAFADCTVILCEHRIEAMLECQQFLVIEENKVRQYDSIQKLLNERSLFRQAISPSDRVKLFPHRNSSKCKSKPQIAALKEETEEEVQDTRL

| SMILES | % Activation (ΔF508-CFTR [1]) | EC50 (ΔF508-CFTR [1]) | % Activation (ΔF508-CFTR [2]) | EC50 (ΔF508-CFTR [2]) |
| --- | --- | --- | --- | --- |
| COCCS(=O)(=O)NC(=O)c1cc(-c2ccc(OC)cc2)c2c(C)nn(CC(C)C)c2n1 [Compound 231, N-(2-methoxyethanesulfonyl)-4-(4-methoxyphenyl)-3-methyl-1-(2-methylpropyl)-1H-pyrazolo[3,4-b]pyridine-6-carboxamide] | 329.9% | 518 nM | 162.9% | 939 nM |
| CC1(S(=O)(=O)NC(=O)c2cc(N3CCC(N4CCOCC4)CC3)c3c(C4CCC4)nn(-c4ccc(F)cc4)c3n2)CC1 [Compound 508, 3-cyclobutyl-1-(4-fluorophenyl)-N-(1-methylcyclopropane-1-sulfonyl)-4-[4-(morpholin-4-yl)piperidin-1-yl]-1H-pyrazolo[3,4-b]pyridine-6-carboxamide] | 448.8% | 90.3 nM | 217.5% | 182 nM |
| CC(C)c1nn(-c2ccc(F)cc2)c2nc(C(=O)NS(C)(=O)=O)cc(N3CCC4(CCCO4)CC3)c12 [Compound 180, 1-(4-fluorophenyl)-N-(methanesulfonyl)-4-(1-oxa-8-azaspiro[4.5]decan-8-yl)-3-(propan-2-yl)-1H-pyrazolo[3,4-b]pyridine-6-carboxamide] | 290.53% | 300 nM | 129.5% | 570 nM |
| COC1CCCN(C2CCN(c3cc(C(=O)NS(=O)(=O)N(C)C)nc4c3c(C3CCC3)nn4-c3ccc(F)cc3)CC2)C1 (stereo not shown) [Compound 572, 3-cyclobutyl-N-(dimethylsulfamoyl)-1-(4-fluorophenyl)-4-(3-methoxy[1,4'-bipiperidin]-1'-yl)-1H-pyrazolo[3,4-b]pyridine-6-carboxamide] | 412.9% | 225 nM | 237.55% | 295 nM |
| CC(C)c1nn(-c2cccc(N(C)C)c2)c2nc(C(=O)NS(C)(=O)=O)cc(-c3cnc(N4CCOCC4)nc3)c12 [Compound 59, 1-[3-(dimethylamino)phenyl]-N-(methanesulfonyl)-4-[2-(morpholin-4-yl)pyrimidin-5-yl]-3-(propan-2-yl)-1H-pyrazolo[3,4-b]pyridine-6-carboxamide] | 534.8% | 482 nM | 317.3% | 777 nM |
| CC(C)c1nn(-c2ccc(F)cc2F)c2nc(C(=O)NS(C)(=O)=O)cc(-c3cnc(N4CCC(C#N)CC4)nc3)c12 [Compound 139, 4-[2-(4-cyanopiperidin-1-yl)pyrimidin-5-yl]-1-(2,4-difluorophenyl)-N-(methanesulfonyl)-3-(propan-2-yl)-1H-pyrazolo[3,4-b]pyridine-6-carboxamide] | 335.5% | 765 nM | 163.83% | 806 nM |
| Cc1nn(-c2cccc(C(F)(F)F)c2)c2nc(C(=O)NS(C)(=O)=O)cc(-c3ccc(N(C)C)cc3)c12 [Compound 26, 4-[4-(dimethylamino)phenyl]-N-(methanesulfonyl)-3-methyl-1-[3-(trifluoromethyl)phenyl]-1H-pyrazolo[3,4-b]pyridine-6-carboxamide] | 449.7% | 1550 nM | 202.25% | 1850 nM |
| CS(=O)(=O)NC(=O)c1cc(-c2ccc(N3CCC(C#N)CC3)nc2)c2c(n1)n(-c1ccccc1)nc2[C@H]1C[C@H](F)C1 [Compound 210, 4-[6-(4-cyanopiperidin-1-yl)pyridin-3-yl]-3-(trans-3-fluorocyclobutyl)-N-(methanesulfonyl)-1-phenyl-1H-pyrazolo[3,4-b]pyridine-6-carboxamide] | 390.57% | 174 nM | 205.57% | 286 nM |
| CS(=O)(=O)NC(=O)c1cc(N2CCC(N3CCCC(C(F)(F)F)C3)CC2)c2c(C3CCC3)nn(-c3ccc(F)cc3)c2n1 (stereo not shown) [Compound 586, 3-cyclobutyl-1-(4-fluorophenyl)-N-(methanesulfonyl)-4-[3-(trifluoromethyl)[1,4'-bipiperidin]-1'-yl]-1H-pyrazolo[3,4-b]pyridine-6-carboxamide] | 618.65% | 37.1 nM | 331.67% | 52.4 nM |
| CC(C)c1nn(C2CCCCC2)c2nc(C(=O)NS(C)(=O)=O)cc(-c3ccc(N(C)C4CCOCC4)nc3)c12 [Compound 51, 1-cyclohexyl-N-(methanesulfonyl)-4-{6-[methyl(oxan-4-yl)amino]pyridin-3-yl}-3-(propan-2-yl)-1H-pyrazolo[3,4-b]pyridine-6-carboxamide] | 420.67% | 312 nM | 172.4% | 457 nM |
| CC(C)c1nn(-c2ccc(F)cc2)c2nc(C(=O)NS(C)(=O)=O)cc(OCC3(C)CC(F)(F)C3)c12 [Compound 306, 4-[(3,3-difluoro-1-methylcyclobutyl)methoxy]-1-(4-fluorophenyl)-N-(methanesulfonyl)-3-(propan-2-yl)-1H-pyrazolo[3,4-b]pyridine-6-carboxamide] | 321.1% | 82.4 nM | 146.7% | 158 nM |
| COCCS(=O)(=O)NC(=O)c1cc(-c2ccc(N3CCOCC3)cc2)c2c(C)nn(C3CC3)c2n1 [Compound 235, 1-cyclopropyl-N-(2-methoxyethanesulfonyl)-3-methyl-4-[4-(morpholin-4-yl)phenyl]-1H-pyrazolo[3,4-b]pyridine-6-carboxamide] | 257.55% | 2490 nM | 102.76% | 3270 nM |
| CCOCC1(F)CCN(c2cc(C(=O)NS(C)(=O)=O)nc3c2c(C2CCC2)nn3-c2ccccc2)CC1 [Compound 501, 3-cyclobutyl-4-[4-(ethoxymethyl)-4-fluoropiperidin-1-yl]-N-(methanesulfonyl)-1-phenyl-1H-pyrazolo[3,4-b]pyridine-6-carboxamide] | 403.55% | 124 nM | 188.7% | 211 nM |
| CC(C)c1nn(-c2ccc(F)cc2)c2nc(C(=O)NS(C)(=O)=O)cc(OCCCN(C)C)c12 [Compound 299, 4-[3-(dimethylamino)propoxy]-1-(4-fluorophenyl)-N-(methanesulfonyl)-3-(propan-2-yl)-1H-pyrazolo[3,4-b]pyridine-6-carboxamide] | 267.2% | 2510 nM | 81.41% | 3330 nM |
| COCC1CCN(S(=O)(=O)NC(=O)c2cc(N3CCC(N4CCOCC4)CC3)c3c(C4CCC4)nn(-c4ccc(F)cc4)c3n2)CC1 [Compound 540, 3-cyclobutyl-1-(4-fluorophenyl)-N-[4-(methoxymethyl)piperidine-1-sulfonyl]-4-[4-(morpholin-4-yl)piperidin-1-yl]-1H-pyrazolo[3,4-b]pyridine-6-carboxamide] | 443.3% | 103 nM | 248.8% | 123 nM |
| COC1CCN(C2CCN(c3cc(C(=O)NS(C)(=O)=O)nc4c3c(OC(C)C)nn4-c3ccc(F)cc3)CC2)CC1 [Compound 644, 1-(4-fluorophenyl)-N-(methanesulfonyl)-4-(4-methoxy[1,4'-bipiperidin]-1'-yl)-3-[(propan-2-yl)oxy]-1H-pyrazolo[3,4-b]pyridine-6-carboxamide] | 529.95% | 160 nM | 266.9% | 253 nM |
